Assays:
Assay type in all cases: physicochemical; call rule not given here
[1] = Antioxidant activity assessed as OH-induced DNA oxidation at 150 uM by TBARS method
[2] = Antioxidant activity assessed as protection against Cu2+/GSH-induced DNA oxidation at 150 uM up to 180 mins by TBARS method; conditions: 3 h
[3] = Antioxidant activity assessed as inhibition time period for protection against AAPH-induced DNA oxidation at 37 degC by TBARS method

Row | Activity [1] [%] | inhibition (INH) [2] | Time [3] [min] | Compound
1 | 68.1 | Not Active | 7.43 | COc1cc2cc(C(=O)NCCc3ccc(O)cc3)c(=O)oc2cc1O
2 | 86.5 | Active | 2.92 | COc1cc2cc(C(=O)O)c(=O)oc2cc1O
3 | 82.6 | Active |  | O=C(O)c1cc2ccccc2oc1=O [COUMARIN-3-CARBOXYLIC ACID]
4 | 78.8 | Active | 0.82 | O=C(O)c1cc2ccc(O)cc2oc1=O

The remaining lines, values behind:

Row | Compound | Activity [1] [%] | inhibition (INH) [2] | Time [3] [min]
5 | O=C(NCCc1ccc(O)cc1)c1cc2ccc(O)cc2oc1=O | 71.5 | Not Active | 
6 | O=C(NCCc1ccccc1)c1cc2ccc(O)cc2oc1=O | 75.3 | Not Active | 
7 | O=C(NCCc1ccccc1)c1cc2ccccc2oc1=O | 72.9 | Active | 
8 | COc1cc2cc(C(=O)NCCc3ccccc3)c(=O)oc2cc1O | 73.6 | Not Active | 1.61
9 | O=C(NCCc1ccc(O)cc1)c1cc2ccccc2oc1=O | 76.4 | Not Active | 1.28
